# Experiments:
# U87NS = test: Neurosphere formation / recovery / secondary neurosphere assay, U87NS; format: cell-based, human; conditions: LY alone at various concentrations, counted after 7 days
# Protocol: (§1) The effect of chemotherapy on neurosphere formation was assayed in glioma neurosphere cultures. Cultures are treated with a single dose of the agent, e.g., TMZ and multiple doses of a GSI, e.g., DAPT to inhibit the Notch pathway. After the Treatment phase, the number of initial spheres (counted about 7 days after TMZ treatment) represents the number of proliferating CSC/progenitors (FIG. 1 for schematic). Recovery (counted 14 days after TMZ treatment) includes enlargement of the initial spheres and new spheres formed when CSC/progenitor cells quiescent as a result of chemotherapy resume cell proliferation. […] The cells used included U87NS, a neurosphere culture converted to neurosphere growth in defined medium from U87MG (an old Swedish line that is grown in conventional serum conditions); GS7-2, GS8-26 and GS6-22 primary neurosphere cultures that were obtained from grade IV GBM patient tumor samples and AS5-15, which was obtained from a grade III anaplastic astrocytoma.
# (§2) To determine the effects of TMZ plus DAPT neurospheres, cells were plated as previously described (Mihaliak et al., Cancer Letts. 296, 168-177 (2010)). Immediately after plating, cells were treated with DMSO, DAPT-only, LY411,575 (LY)-only TMZ-only, TMZ+DAPT or TMZ+LY. The initial neurospheres were counted on day 7 for the converted cell lines and on day 10 for the slower growing primary lines. Neurosphere recovery was measured on day 14 or 20. The neurospheres were dissociated, re-plated and secondary neurosphere formation was measured on day 21 or 30.
# (§3) Neurosphere cultures were dissociated to single cell suspensions by pH dissociation followed by filtration through 40 μm screens. For the neurosphere assay, 3,000 cells/ml of defined medium were seeded in 6-well plates. Immediately after plating, cells were treated with DMSO (Research Organics, Cleveland, Ohio) carrier control, TMZ-only, DAPT-only, or TMZ+DAPT. Additional DAPT was added on days 2 and 4. Neurospheres consisting of 10 or more cells were counted under a light microscope on day 7 for the converted cell lines. Primary lines have a slightly longer doubling time and were counted on day 10. After counting the neurospheres from the initial treatment, 2 ml of fresh defined medium was added to each well. DAPT was also added once more to the DAPT-only and TMZ+DAPT samples, and the cells were incubated for an additional 7 or 10 days. Neurospheres from the recovery period were counted on day 14 or day 20. To analyze secondary neurosphere formation, cells were collected, pelleted and dissociated to a single cell suspension by the pH method. Cells from each well were re-seeded into 6-well plates with 2 ml of defined medium. The number of secondary neurospheres formed by converted cell lines and primary cultures were counted on day 21 or day 30, respectively. All recovery assays were repeated with a minimum of 6 replicate sets of time points.
# For the samples labeled “PRE-treat”, a single dose of DAPT was administered when the cells were plated, and then TMZ was added to the medium 24 hours later. For the “CO-treat” samples, single doses of TMZ and DART were added simultaneously when the cells were plated. Finally, samples labeled “POST-treat” were treated with TMZ, and then DAPT was added 24 hours later.
# U373NS = test: Neurosphere formation / recovery / secondary neurosphere assay, U373NS; format: cell-based, human
# Protocol: as §1, §2, §3
smiles,measurement,setting,value
"C[C@H](NC(=O)[C@@H](O)c1cc(F)cc(F)c1)C(=O)N[C@@H]1C(=O)N(C)c2ccccc2-c2ccccc21 [LY, N-2((2S)-2-(3,5-difluorophenyl)-2-hydroxyethanoyl)-N1-((7S)-5-methyl-6-oxo-6,7-dihydro-5H-dibenzo[b,d]azepin-7-yl)-L-alaninamide]",neurosphere formation,U87NS,dose-dependent decrease
same,neurosphere formation,"U373NS; LY alone at various concentrations, counted after 7 days",dose-dependent decrease
same,secondary neurosphere formation compared to DMSO treated samples,"U373NS; LY-only, secondary formation still robust",decreased
